# Measured values as given in patent US20230085307A1, “PYRIDAZINONE COMPOUND AND HERBICIDE” (NISSAN CHEMICAL CORPORATION, priority 2019, published 2023).
# Key:
# windgrass [1] = test: Test Example 4: herbicidal effect by soil treatment (Table 19, symbol L); format: in vivo, windgrass (Apera spica-venti); conditions: amount of applied herbicide 320 g/ha
# Method in brief: (§1)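 Step 1: sow seeds in sterilized diluvial soil, cover ~1.5 cm. Step 2: spray diluted emulsion onto soil surface at predetermined rate. Step 3: greenhouse, 25–30° C, three weeks. Step 4: grade effect on each plant by earlier criteria.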
# velvetleaf [2] = test: Test Example 4: herbicidal effect by soil treatment (Table 19, symbol M); format: in vivo, velvetleaf (Abutilon theophrasti); conditions: amount of applied herbicide 320 g/ha
# Method in brief: as §1
# persian speedwell [3] = test: Test Example 4: herbicidal effect by soil treatment (Table 19, symbol R); format: in vivo, Persian speedwell (Veronica persica); conditions: amount of applied herbicide 320 g/ha
# Method in brief: as §1
# lambsquarters [4] = test: Test Example 5: herbicidal effect by foliage application, plastic box (Table 20, symbol O); format: in vivo, lambsquarters (Chenopodium album); conditions: amount of applied herbicide 320 g/ha; foliage application after 14-day growth; evaluated three weeks after application
# Method in brief: (§2)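 Foliar spray test: emulsion formulation diluted in water to a set application rate, sprayed onto 14-day-old plants raised in diluvial soil at 25° C to 30° C under glass. Both herbicidal effect and crop effect rated visually three weeks later.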
# green foxtail [5] = test: Test Example 4: herbicidal effect by soil treatment (Table 19, symbol G); format: in vivo, green foxtail (Setaria viridis); conditions: amount of applied herbicide 320 g/ha
# Method in brief: as §1
# late watergrass = test: Test Example 1: herbicidal activity, application before weed generation under submerged conditions (Table 16, symbol A); format: in vivo, late watergrass (Echinochloa oryzicola); conditions: amount of applied herbicide 320 g/ha
# Method in brief: (§3)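 Emulsion formulation, water-diluted to set dose, was put onto the flooded surface (4 cm depth, alluvial soil) the same day weeds were sown and 2.5-leaf rice transplanted. After 3 weeks at 25-30 °C under glass, each species was rated 0 (≤5% kill) to 5 (≥90% kill).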
# Chinese sprangletop = test: Test Example 3: herbicidal effect by foliage application, Wagner pot (Table 18, symbol D); format: in vivo, chinese sprangletop (Leptochloa chinensis); conditions: 320 g/ha
# Method in brief: (§4)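 Plants were sown in alluvial soil held under 0.1–0.5 cm standing water and grown 14 days in a greenhouse at 25–30 °C. An emulsifiable formulation, water-diluted to the set dose, was then sprayed onto the foliage, and effects were scored three weeks later using previously defined criteria.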
# wild oat [6] = test: Test Example 5: herbicidal effect by foliage application, plastic box (Table 20, symbol I); format: in vivo, wild oat (Avena fatua); conditions: amount of applied herbicide 320 g/ha; foliage application after 14-day growth; evaluated three weeks after application
# Method in brief: as §2
# barnyard grass [7] = test: Test Example 5: herbicidal effect by foliage application, plastic box (Table 20, symbol H); format: in vivo, barnyard grass (Echinochloa crus-galli); conditions: amount of applied herbicide 320 g/ha; foliage application after 14-day growth; evaluated three weeks after application
# Method in brief: as §2
# barnyard grass [8] = test: Test Example 3: herbicidal effect by foliage application, Wagner pot (Table 18, symbol H); format: in vivo, barnyard grass (Echinochloa crus-galli); conditions: 320 g/ha
# Method in brief: as §4
# chickweed [9] = test: Test Example 5: herbicidal effect by foliage application, plastic box (Table 20, symbol P); format: in vivo, common chickweed (Stellaria media); conditions: amount of applied herbicide 320 g/ha; foliage application after 14-day growth; evaluated three weeks after application
# Method in brief: as §2
# green foxtail [10] = test: Test Example 5: herbicidal effect by foliage application, plastic box (Table 20, symbol G); format: in vivo, green foxtail (Setaria viridis); conditions: amount of applied herbicide 320 g/ha; foliage application after 14-day growth; evaluated three weeks after application
# Method in brief: as §2
# windgrass [11] = test: Test Example 5: herbicidal effect by foliage application, plastic box (Table 20, symbol L); format: in vivo, windgrass (Apera spica-venti); conditions: amount of applied herbicide 320 g/ha; foliage application after 14-day growth; evaluated three weeks after application
# Method in brief: as §2
# rice flat sedge = test: Test Example 3: herbicidal effect by foliage application, Wagner pot (Table 18, symbol E); format: in vivo, rice flat sedge (Cyperus iria); conditions: 320 g/ha
# Method in brief: as §4
# false cleavers = test: Test Example 5: herbicidal effect by foliage application, plastic box (Table 20, symbol Q); format: in vivo, false cleavers (Galium spurium); conditions: amount of applied herbicide 320 g/ha; foliage application after 14-day growth; evaluated three weeks after application
# Method in brief: as §2
# southern crabgrass [12] = test: Test Example 4: herbicidal effect by soil treatment (Table 19, symbol F); format: in vivo, southern crabgrass (Digitaria ciliaris); conditions: amount of applied herbicide 320 g/ha
# Method in brief: as §1
# blackgrass [13] = test: Test Example 4: herbicidal effect by soil treatment (Table 19, symbol J); format: in vivo, blackgrass (Alopecurus myosuroides); conditions: amount of applied herbicide 320 g/ha
# Method in brief: as §1
# blackgrass [14] = test: Test Example 5: herbicidal effect by foliage application, plastic box (Table 20, symbol J); format: in vivo, blackgrass (Alopecurus myosuroides); conditions: amount of applied herbicide 320 g/ha; foliage application after 14-day growth; evaluated three weeks after application
# Method in brief: as §2
# velvetleaf [15] = test: Test Example 5: herbicidal effect by foliage application, plastic box (Table 20, symbol M); format: in vivo, velvetleaf (Abutilon theophrasti); conditions: amount of applied herbicide 320 g/ha; foliage application after 14-day growth; evaluated three weeks after application
# Method in brief: as §2
# Italian ryegrass [16] = test: Test Example 4: herbicidal effect by soil treatment (Table 19, symbol K); format: in vivo, Italian ryegrass (Lolium multiflorum); conditions: amount of applied herbicide 320 g/ha
# Method in brief: as §1
# Italian ryegrass [17] = test: Test Example 5: herbicidal effect by foliage application, plastic box (Table 20, symbol K); format: in vivo, Italian ryegrass (Lolium multiflorum); conditions: amount of applied herbicide 320 g/ha; foliage application after 14-day growth; evaluated three weeks after application
# Method in brief: as §2
# redroot pigweed [18] = test: Test Example 5: herbicidal effect by foliage application, plastic box (Table 20, symbol N); format: in vivo, redroot pigweed (Amaranthus retroflexus); conditions: amount of applied herbicide 320 g/ha; foliage application after 14-day growth; evaluated three weeks after application
# Method in brief: as §2
# redroot pigweed [19] = test: Test Example 4: herbicidal effect by soil treatment (Table 19, symbol N); format: in vivo, redroot pigweed (Amaranthus retroflexus); conditions: amount of applied herbicide 320 g/ha
# Method in brief: as §1
# lambsquarters [20] = test: Test Example 4: herbicidal effect by soil treatment (Table 19, symbol O); format: in vivo, lambsquarters (Chenopodium album); conditions: amount of applied herbicide 320 g/ha
# Method in brief: as §1
# southern crabgrass [21] = test: Test Example 5: herbicidal effect by foliage application, plastic box (Table 20, symbol F); format: in vivo, southern crabgrass (Digitaria ciliaris); conditions: amount of applied herbicide 320 g/ha; foliage application after 14-day growth; evaluated three weeks after application
# Method in brief: as §2
# wild oat [22] = test: Test Example 4: herbicidal effect by soil treatment (Table 19, symbol I); format: in vivo, wild oat (Avena fatua); conditions: amount of applied herbicide 320 g/ha
# Method in brief: as §1
# chickweed [23] = test: Test Example 4: herbicidal effect by soil treatment (Table 19, symbol P); format: in vivo, common chickweed (Stellaria media); conditions: amount of applied herbicide 320 g/ha
# Method in brief: as §1
# oval-leafed pondweed = test: Test Example 1: herbicidal activity, application before weed generation under submerged conditions (Table 16, symbol C); format: in vivo, oval-leafed pondweed (Monochoria vaginalis); conditions: amount of applied herbicide 320 g/ha
# Method in brief: as §3
# Japanese bulrush = test: Test Example 1: herbicidal activity, application before weed generation under submerged conditions (Table 16, symbol B); format: in vivo, Japanese bulrush (Schoenoplectus juncoides); conditions: amount of applied herbicide 320 g/ha
# Method in brief: as §3
# persian speedwell [24] = test: Test Example 5: herbicidal effect by foliage application, plastic box (Table 20, symbol R); format: in vivo, Persian speedwell (Veronica persica); conditions: amount of applied herbicide 320 g/ha; foliage application after 14-day growth; evaluated three weeks after application
# Method in brief: as §2
# barnyard grass [25] = test: Test Example 4: herbicidal effect by soil treatment (Table 19, symbol H); format: in vivo, barnyard grass (Echinochloa crus-galli); conditions: amount of applied herbicide 320 g/ha
# Method in brief: as §1
Structure (SMILES),"L: windgrass, herbicidal effect grade (windgrass [1])","M: velvetleaf, herbicidal effect grade (velvetleaf [2])","R: persian speedwell, herbicidal effect grade (persian speedwell [3])","Herbicidal effect by foliage application, O: lambsquarters (lambsquarters [4])","G: green foxtail, herbicidal effect grade (green foxtail [5])","Herbicidal effect, A: late watergrass (late watergrass)",herbicidal effect on Chinese sprangletop (D) (Chinese sprangletop),"Herbicidal effect by foliage application, I: wild oat (wild oat [6])","Herbicidal effect by foliage application, H: barnyard grass (barnyard grass [7])",herbicidal effect on barnyard grass (H) (barnyard grass [8]),"Herbicidal effect by foliage application, P: chickweed (chickweed [9])","Herbicidal effect by foliage application, G: green foxtail (green foxtail [10])","Herbicidal effect by foliage application, L: windgrass (windgrass [11])",herbicidal effect on rice flat sedge (E) (rice flat sedge),"Herbicidal effect by foliage application, Q: false cleavers (false cleavers)","F: southern crabgrass, herbicidal effect grade (southern crabgrass [12])","J: blackgrass, herbicidal effect grade (blackgrass [13])","Herbicidal effect by foliage application, J: blackgrass (blackgrass [14])","Herbicidal effect by foliage application, M: velvetleaf (velvetleaf [15])","K: Italian ryegrass, herbicidal effect grade (Italian ryegrass [16])",other results
CCCC(=O)Oc1c(C)nn(C)c(=O)c1-c1c(-c2ccc(C)cc2)sc2cc(F)c(F)cc12 [5-004],0 (Herbicidal rate of 5% or less (almost no effect)),0 (Herbicidal rate of 5% or less (almost no effect)),0 (Herbicidal rate of 5% or less (almost no effect)),4 (Herbicidal rate of 70% or more and less than 90%),0 (Herbicidal rate of 5% or less (almost no effect)),2 (Herbicidal rate of 20% or more and less than 40%),0 (Herbicidal rate of 5% or less (almost no effect)),0 (Herbicidal rate of 5% or less (almost no effect)),0 (Herbicidal rate of 5% or less (almost no effect)),3 (Herbicidal rate of 40% or more and less than 70%),3 (Herbicidal rate of 40% or more and less than 70%),3 (Herbicidal rate of 40% or more and less than 70%),1 (Herbicidal rate of 5% or more and less than 20%),0 (Herbicidal rate of 5% or less (almost no effect)),0 (Herbicidal rate of 5% or less (almost no effect)),0 (Herbicidal rate of 5% or less (almost no effect)),0 (Herbicidal rate of 5% or less (almost no effect)),0 (Herbicidal rate of 5% or less (almost no effect)),3 (Herbicidal rate of 40% or more and less than 70%),0 (Herbicidal rate of 5% or less (almost no effect)),"Herbicidal effect by foliage application, K: Italian ryegrass (Italian ryegrass [17]): 1 (Herbicidal rate of 5% or more and less than 20%); Herbicidal effect by foliage application, N: redroot pigweed (redroot pigweed [18]): 2 (Herbicidal rate of 20% or more and less than 40%); N: redroot pigweed, herbicidal effect grade (redroot pigweed [19]): 3 (Herbicidal rate of 40% or more and less than 70%); O: lambsquarters, herbicidal effect grade (lambsquarters [20]): 4 (Herbicidal rate of 70% or more and less than 90%); Herbicidal effect by foliage application, F: southern crabgrass (southern crabgrass [21]): 0 (Herbicidal rate of 5% or less (almost no effect)); I: wild oat, herbicidal effect grade (wild oat [22]): 0 (Herbicidal rate of 5% or less (almost no effect)); P: chickweed, herbicidal effect grade (chickweed [23]): 0 (Herbicidal rate of 5% or less (almost no effect)); Herbicidal effect, C: oval-leafed pondweed (oval-leafed pondweed): 0 (Herbicidal rate of 5% or less (almost no effect)); Herbicidal effect, B: Japanese bulrush (Japanese bulrush): 3 (Herbicidal rate of 40% or more and less than 70%); Herbicidal effect by foliage application, R: persian speedwell (persian speedwell [24]): 3 (Herbicidal rate of 40% or more and less than 70%); H: barnyard grass, herbicidal effect grade (barnyard grass [25]): 0 (Herbicidal rate of 5% or less (almost no effect))"
CCCC(=O)Oc1c(C)nn(C)c(=O)c1-c1c(-c2ccc(COC)cc2)sc2cc(F)c(F)cc12 [5-010],0 (Herbicidal rate of 5% or less (almost no effect)),2 (Herbicidal rate of 20% or more and less than 40%),2 (Herbicidal rate of 20% or more and less than 40%),3 (Herbicidal rate of 40% or more and less than 70%),0 (Herbicidal rate of 5% or less (almost no effect)),0 (Herbicidal rate of 5% or less (almost no effect)),3 (Herbicidal rate of 40% or more and less than 70%),0 (Herbicidal rate of 5% or less (almost no effect)),1 (Herbicidal rate of 5% or more and less than 20%),3 (Herbicidal rate of 40% or more and less than 70%),3 (Herbicidal rate of 40% or more and less than 70%),4 (Herbicidal rate of 70% or more and less than 90%),0 (Herbicidal rate of 5% or less (almost no effect)),4 (Herbicidal rate of 70% or more and less than 90%),5 (Herbicidal rate of 90% or more (almost completely withered)),0 (Herbicidal rate of 5% or less (almost no effect)),0 (Herbicidal rate of 5% or less (almost no effect)),0 (Herbicidal rate of 5% or less (almost no effect)),0 (Herbicidal rate of 5% or less (almost no effect)),0 (Herbicidal rate of 5% or less (almost no effect)),"Herbicidal effect by foliage application, K: Italian ryegrass (Italian ryegrass [17]): 1 (Herbicidal rate of 5% or more and less than 20%); Herbicidal effect by foliage application, N: redroot pigweed (redroot pigweed [18]): 2 (Herbicidal rate of 20% or more and less than 40%); N: redroot pigweed, herbicidal effect grade (redroot pigweed [19]): 3 (Herbicidal rate of 40% or more and less than 70%); O: lambsquarters, herbicidal effect grade (lambsquarters [20]): 3 (Herbicidal rate of 40% or more and less than 70%); Herbicidal effect by foliage application, F: southern crabgrass (southern crabgrass [21]): 0 (Herbicidal rate of 5% or less (almost no effect)); I: wild oat, herbicidal effect grade (wild oat [22]): 0 (Herbicidal rate of 5% or less (almost no effect)); P: chickweed, herbicidal effect grade (chickweed [23]): 0 (Herbicidal rate of 5% or less (almost no effect)); Herbicidal effect, C: oval-leafed pondweed (oval-leafed pondweed): 0 (Herbicidal rate of 5% or less (almost no effect)); Herbicidal effect, B: Japanese bulrush (Japanese bulrush): 2 (Herbicidal rate of 20% or more and less than 40%); Herbicidal effect by foliage application, R: persian speedwell (persian speedwell [24]): 5 (Herbicidal rate of 90% or more (almost completely withered)); H: barnyard grass, herbicidal effect grade (barnyard grass [25]): 2 (Herbicidal rate of 20% or more and less than 40%)"
